Source: US20240002393A1, “SUBSTITUTED BENZO[f][l ,2,4JTRIAZOL0[4,3-a][l ,4J[…] GABA A GAMMA! POSITIVE ALLOSTERIC MODULATORS” (Hoffmann-La Roche Inc., priority 2020, published 2024)
pKi: −log10 of the molar value.

Assays:
h-GABA-A α2β2γ1 = h-GABA-A α2β2γ1 (Homo sapiens (Human), UniProt P47869+Q8N1C3); test: Two-electrode voltage clamp electrophysiology in Xenopus oocytes expressing GABAA receptors; type: cell-based; details: for Efficacy (GABA)%: % modulation of GABA EC20 = 100*(Fold increase−1), compound at 30-fold Ki; for Fold increase h-GABA-A α2β2γ1 oocyte @ 30-fold Ki: GABA EC20, test compound at about 30-fold its Ki α2β2γ1, at least 3 oocytes
Experimental: Xenopus laevis oocytes at maturation stages V-VI were used for the expression of cloned mRNA encoding GABAA receptor subunits. Oocytes ready for RNA micro-injection were bought from Ecocyte, Castrop-Rauxel, Germany and stored in modified Barth's medium (composition in mM: NaCl 88, KCl 1, NaHCO3 2.4, HEPES 10, MgSO4 0.82, CaNO3 0.33, CaCl2 0.33, pH=7.5) at 20° C. until the experiment.
Oocytes were plated in 96-well plates for microinjection using the Roboinject automated instrument (MultiChannelSystems, Reutlingen, Germany). Approximately 50 nL of an aqueous solution containing the RNA transcripts for the subunits of the desired GABAA receptor subtype was injected into each oocyte. […] Oocytes were kept in modified Barth's medium (composition in mM: NaCl 88, KCl 1, NaHCO3 […], HEPES 10, MgSO4 0.82, CaNO3 0.33, CaCl2 0.33, pH=7.5) at 20° C. until the experiment.
Electrophysiological experiments were performed using the Roboocyte instrument (MultiChannelSystems, Reutlingen, Germany) on days 3 to 5 after the micro-injection of mRNA. During the experiment the oocytes were constantly superfused by a solution containing (in mM) NaCl 90, KCl 1, HEPES 5, MgCl2 1 CaCl2 1 (pH 7.4). Oocytes were impaled by two glass microelectrodes (resistance: 0.5-0.8 MΩ) which were filled with a solution containing KCl 1M+K-acetate 1.5 M and voltage-clamped to −80 mV. The recordings were performed at room temperature using the Roboocyte two-electrode voltage clamp system (Multichannelsystem). After an initial equilibration period of 1.5 min GABA was added for 1.5 min at a concentration evoking approximately 20% of a maximal current response (EC20). After another rest interval of 2.5 min GABA was again added evoking a response of similar amplitude and shape. […] Current traces were recorded at a digitization rate of 10 Hz during and shortly before and after the GABA application.
Each compound and concentration was tested on at least 3 oocytes. Different oocytes were used for different compound concentrations.
For the analysis, the digitized current traces of the first and second GABA response were superimposed and, if necessary, rescaled to equal maximal amplitudes. The ratio between the two responses during the time interval of test compound application was calculated point by point. The extremum of the resulting “ratio trace” was taken as the efficacy (“Fold increase”) of the compound expressed as “% modulation of GABA EC20” (100*(Fold increase−1)).

[1] = biological target: human GABAA α2β2γ1 receptor (Homo sapiens (Human), UniProt P47869+Q8N1C3); test: Radioligand binding assay, [3H]RO7239181 competition, γ1-containing GABAA subtypes; details: for pKi: HEK293F membranes, [3H]RO7239181 20-30 nM, mean of two determinations, read-out: Ki h-GABAA α2β2γ1; for γ2/γ1 Selectivity Ratio: Ki α1β3γ2 (nM)/Ki α2β2γ1 (nM); for LogSel: Log[Ki α1β3γ2 (nM)/Ki α2β2γ1 (nM)]
Experimental: (§1) The affinity of compounds at GABAA γ1 subunit-containing receptors was measured by competition for [^3H]RO7239181 (67.3 Ci/mmol; Roche) binding to membranes from HEK293F cells (ThermoFisher R79007) expressing human (transiently transfected) receptors of composition α5β2γ1, α2β2γ1, α1β2γ1.
(§2) Harvested pellets from HEK293F cells expressing the different GABAA receptor subtypes were resuspended in Mannitol Buffer pH 7.2-7.4 (Mannitol 0.29M, Triethylamine 10 mM, Acetic acid 10 mM, EDTA 1 mM plus protease inhibitors (20 tablets Complete, Roche Diagnostics Cat. No. 05 056 489 001 per liter)), washed two times and then resuspended at 1:10 to 1:15 dilution in the same buffer. Cell disruption was performed by stirring the suspension in a Parr vessel #4637 at 435 psi for 15 minutes, and then the suspensions were centrifuged at 1000×g for 15 minutes at 4° C. (Beckman Avanti J-HC; rotor JS)-4.2). The supernatant (S1) was transferred in a 21 Schott flask and the pellet (P1) was resuspended with Mannitol Buffer up to 175 ml. The resuspended pellet was transferred into a 250 ml Corning centrifugal beaker and centrifuged at 1500×g for 10 minutes at 4° C. (Beckman Avanti J-HC; rotor JS)-4.2). The supernatant (S1) was then transferred in the 21 Schott flask and the pellet was discarded. The supernatants (S1) were centrifuged in 500 ml Beckman polypropylene centrifugal beaker at 15,000×g for 30 minutes at 4° C. (Beckman Avanti J-20 XP; rotor JLA-10.500). The pellet (P2) was resuspended with Mannitol Buffer 1:1 and frozen at −80° C. The supernatant (S2) was centrifuged in 100 ml Beckman polypropylene centrifugal tubes at 48000×g for 50 minutes at […] (Beckman Avanti J-20 XP; rotor JA-18). The supernatant (S3) was discarded and the pellet (P3) was resuspended with 1:1 Mannitol Buffer. The P2 and P3 protein concentration was determined with the BIORAD Standard assay method with bovine serum albumin as standard and measured on the NANO-Drop 1000. The membrane suspension was aliquots (500 μl per tube) and stored at −80° C. until required.
(§3) Membrane homogenates were resuspended and polytronised (Polytron PT1200E Kinematica AG) in Potassium Phosphate 10 mM, KCl 100 mM binding buffer at pH 7.4 to a final assay concentration determined with a previous experiment.
(§4) Assays were incubated to equilibrium for 1 hour at 4° C. and then, membranes were filtered onto unifilter (96-well white microplate with bonded GF/C filters preincubated 20-50 minutes in 0.3% Polyethylenimine) with a Filtermate 196 harvester (Packard BioScience) and washed 4 times with cold Potassium Phosphate 10 mM pH 7.4, KCl 100 mM binding buffer. After drying, filter-retained radioactivity was detected by liquid scintillation counting. K, values were calculated using Excel-Fit (Microsoft) and are the means of two determinations.

[2] = biological target: human GABAA α1β2γ1 receptor (Homo sapiens (Human), UniProt P14867+Q8N1C3); test: as above; details: HEK293F membranes, [3H]RO7239181 20-30 nM, mean of two determinations
Experimental: as §1, §2, §3, §4

| Structure (SMILES) | Efficacy (GABA)% (h-GABA-A α2β2γ1) | Fold increase h-GABA-A α2β2γ1 oocyte @ 30-fold Ki (h-GABA-A α2β2γ1) | pKi [1] | γ2/γ1 Selectivity Ratio [1] | LogSel [1] | pKi [2] |
| --- | --- | --- | --- | --- | --- | --- |
| C[C@@H]1N=C(c2c(F)cccc2F)c2c(ccc(Cl)c2Cl)-n2c1n[nH]c2=O [Example 64, (4S)-7,8-dichloro-6-(2,6-difluorophenyl)-4-methyl-2,4-dihydro-[1,2,4]triazolo[4,3-a][1,4]benzodiazepin-1-one] | 74% | 1.74 | 7.88 | 45.8 | 1.66 | 7.94 |
| C[C@@H]1N=C(c2ncccc2F)c2c(ccc(Cl)c2Cl)-n2c(-c3ccncn3)nnc21 [Example 66, (4S)-7,8-dichloro-6-(3-fluoro-2-pyridyl)-4-methyl-1-pyrimidin-4-yl-4H-[1,2,4]triazolo[4,3-a][1,4]benzodiazepine] | 143% | 2.43 | 7.01 | 33.5 | 1.53 | 6.64 |
| C[C@@H]1N=C(c2ncccc2F)c2c(ccc(Cl)c2Cl)-n2c(-c3cnn(C)c3)nnc21 [Example 67, (4S)-7,8-dichloro-6-(3-fluoro-2-pyridyl)-4-methyl-1-(1-methylpyrazol-4-yl)-4H-[1,2,4]triazolo[4,3-a][1,4]benzodiazepine] | 69% | 1.69 | 7.58 | 53.5 | 1.73 | 6.72 |
| C[C@@H]1N=C(c2ncccc2F)c2c(ccc(Cl)c2Cl)-n2c(C3CC3)nnc21 [Example 68, (4S)-7,8-dichloro-1-cyclopropyl-6-(3-fluoro-2-pyridyl)-4-methyl-4H-[1,2,4]triazolo[4,3-a][1,4]benzodiazepine] | 109% | 2.09 | 7.41 | 27.4 | 1.44 | 6.44 |
| C[C@@H]1N=C(c2c(F)cccc2F)c2c(ccc(Cl)c2Br)-n2c(-c3cccnn3)nnc21 [Example 73, (4S)-7-bromo-8-chloro-6-(2,6-difluorophenyl)-4-methyl-1-(pyridazin-3-yl)-4H-benzo[f][1,2,4]triazolo[4,3-a][1,4]diazepine] | 105% | 2.05 | 8.06 | 87.5 | 1.94 | 7.63 |
| C[C@@H]1N=C(c2c(F)cccc2F)c2c(ccc(Cl)c2Br)-n2c(-c3ccncn3)nnc21 [Example 74, (4S)-7-bromo-8-chloro-6-(2,6-difluorophenyl)-4-methyl-1-pyrimidin-4-yl-4H-[1,2,4]triazolo[4,3-a][1,4]benzodiazepine] | 62% | 1.62 | 7.76 | 107.6 | 2.03 | 7.55 |
| Cc1nnc2n1-c1ccc(Br)c(Cl)c1C(c1c(F)cccc1F)=N[C@H]2C [Example 75, (4S)-8-bromo-7-chloro-6-(2,6-difluorophenyl)-1,4-dimethyl-4H-[1,2,4]triazolo[4,3-a][1,4]benzodiazepine] | 57% | 1.57 | 8.28 | 38.0 | 1.58 | 8.08 |
| C[C@@H]1N=C(c2c(F)cccc2F)c2c(ccc(Cl)c2Br)-n2c(-c3cnn(C)c3)nnc21 [Example 76, (4S)-7-bromo-8-chloro-6-(2,6-difluorophenyl)-4-methyl-1-(1-methylpyrazol-4-yl)-4H-[1,2,4]triazolo[4,3-a][1,4]benzodiazepine] | 52% | 1.52 | 7.60 | 21.3 | 1.33 | 7.35 |
| Cc1nnc2n1-c1ccc(Cl)c(Br)c1C(c1c(F)cccc1F)=N[C@H]2C [Example 80, (4S)-7-bromo-8-chloro-6-(2,6-difluorophenyl)-1,4-dimethyl-4H-[1,2,4]triazolo[4,3-a][1,4]benzodiazepine] | 59% | 1.59 | 7.63 | 45.3 | 1.66 | 7.37 |
| C[C@@H]1N=C(c2c(F)cccc2F)c2c(ccc(Cl)c2Br)-n2c(-c3ccn(C)n3)nnc21 [Example 81, (4S)-7-bromo-8-chloro-6-(2,6-difluorophenyl)-4-methyl-1-(1-methylpyrazol-3-yl)-4H-[1,2,4]triazolo[4,3-a][1,4]benzodiazepine] | 46% | 1.46 | 7.44 | 43.0 | 1.63 | 7.00 |
| Cc1nnc2n1-c1ccc(Cl)c(Cl)c1C(c1c(F)cccc1F)=N[C@H]2C [Example 82, (4S)-7,8-dichloro-6-(2,6-difluorophenyl)-1,4-dimethyl-4H-[1,2,4]triazolo[4,3-a][1,4]benzodiazepine] | 45% | 1.45 | 7.97 | 24.6 | 1.39 | 7.89 |
| C[C@@H]1N=C(c2ncccc2F)c2c(ccc(Br)c2Cl)-n2c(C3CC3)nnc21 [Example 83, (4S)-8-bromo-7-chloro-1-cyclopropyl-6-(3-fluoro-2-pyridyl)-4-methyl-4H-[1,2,4]triazolo[4,3-a][1,4]benzodiazepine] | 102% | 2.02 | 7.63 | 36.8 | 1.57 | 6.89 |
| C[C@@H]1N=C(c2ncccc2F)c2c(ccc(Br)c2Cl)-n2cnnc21 [Example 84, (4S)-8-bromo-7-chloro-6-(3-fluoro-2-pyridyl)-4-methyl-4H-[1,2,4]triazolo[4,3-a][1,4]benzodiazepine] | 203% | 3.03 | 7.15 | 16.9 | 1.23 | 7.01 |
